Experimental data reported in paper PMC10301845, “Characterization of a Novel M4 PAM PET Radioligand [11C]PF06885190 in Nonhuman Primates (NHP)” (Molecules, 2023).

Key:
M4 [1] = biological target: T1, M4 (Homo sapiens, UniProt P08173); assay: human M4 binding affinity (evaluated by Pfizer); details: identified and evaluated by Pfizer
T1 sequence (P08173 1-479): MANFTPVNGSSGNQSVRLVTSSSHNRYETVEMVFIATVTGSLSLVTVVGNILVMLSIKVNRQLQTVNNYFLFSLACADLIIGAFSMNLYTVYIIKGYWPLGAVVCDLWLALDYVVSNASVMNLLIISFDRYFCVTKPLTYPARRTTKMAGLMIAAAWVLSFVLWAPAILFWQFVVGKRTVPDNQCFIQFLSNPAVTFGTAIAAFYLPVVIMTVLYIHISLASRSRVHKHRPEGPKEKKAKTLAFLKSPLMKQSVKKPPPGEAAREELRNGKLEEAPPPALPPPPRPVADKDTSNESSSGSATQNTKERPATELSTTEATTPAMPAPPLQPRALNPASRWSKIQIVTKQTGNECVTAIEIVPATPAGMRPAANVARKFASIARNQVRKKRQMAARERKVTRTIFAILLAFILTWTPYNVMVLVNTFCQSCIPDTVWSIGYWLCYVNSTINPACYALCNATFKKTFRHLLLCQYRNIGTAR

M4 [2] = biological target: T2, M4 (Rattus norvegicus, UniProt P08485); assay: rat M4 binding affinity (evaluated by Pfizer); details: identified and evaluated by Pfizer
T2 sequence (P08485 1-478): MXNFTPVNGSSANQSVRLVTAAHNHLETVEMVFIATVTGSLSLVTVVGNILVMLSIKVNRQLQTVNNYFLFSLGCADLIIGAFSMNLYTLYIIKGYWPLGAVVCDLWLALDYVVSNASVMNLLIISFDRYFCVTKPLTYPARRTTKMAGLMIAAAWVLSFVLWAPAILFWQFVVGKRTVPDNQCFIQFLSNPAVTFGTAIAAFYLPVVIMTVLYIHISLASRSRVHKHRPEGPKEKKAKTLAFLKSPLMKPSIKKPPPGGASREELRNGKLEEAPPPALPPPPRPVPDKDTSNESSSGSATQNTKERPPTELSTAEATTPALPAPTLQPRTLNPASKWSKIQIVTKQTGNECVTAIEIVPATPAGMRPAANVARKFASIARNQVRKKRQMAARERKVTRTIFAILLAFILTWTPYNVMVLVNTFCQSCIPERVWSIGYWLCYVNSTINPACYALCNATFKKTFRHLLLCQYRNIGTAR

Compound `CNc1nc(C)c(C)c2c1CN(C(=O)C[C@H]1C[C@@H]1c1ccc(F)nc1)C2` [PF06885190, 1-(6,7-dimethyl-4-(methylamino)-1,3-dihydro-2H-pyrrolo [3,4-c]pyridin-2-yl)-2-((1R,2S)-2-(6-fluoropyridin-3-yl)cyclopropyl)ethan-1-one] has a Ki (M4 [1]) of 0.16 nM and a Ki (M4 [2]) of 7.15 nM.
